Assay results from patent US7972800B2, “Screening method for binding property or signal transduction alterations” (Takeda Pharmaceutical Company Limited, priority 2003, dated 2011).

Tests used:
[1] = system: CHO cells where the receptor was not expressed or GPCR other than GPR39 was expressed; format: cell-based; details: FLIPR; control cells
[2] = system: GPR39-expressed UM-UC-3 cells; assay: IL-8 secretion from GPR39-expressed UM-UC-3 cells, quantified by EIA; format: cell-based, human; details: 1 mM copper chloride, 12 hours incubation, culture supernatant
Procedure: Using GPR39-expressed UM-UC-3 cells, the effects of adding metal ions as the agonist for GPR39 were examined.
After washing with PBS, the cells were scraped off using trypsin and centrifuged for recovery. […] Next, the suspension was dispensed in a 6-well plate (Falcon) at 5 ml each per well, followed by incubation overnight in a CO2 incubator.
Then, 5 ml each was added to each well, followed by incubation at 37° C. in a CO2 incubator for […]. […] After the culture supernatant was recovered, IL-8 contained in the samples was quantified by EIA (Amersham).

[3] = system: bladder (micturition) of conscious rats; assay: Cystometry in conscious rats with intravesical infusion; format: in vivo, rat; details: female SD rats, 1 mM CuCl2 in saline infused into the bladder
Procedure: Female SD rats of 9-10 weeks old were anaesthetized by intramuscular injection with 0.1 ml/100 g of a solution obtained by mixing ketamine (50 mg/mL) and xylazine (20 mg/mL) in 5:1. The bladder was then exposed via a midline incision and a hole was made with a 20-G needle to insert a polyethylene tube (PE-50), which tube was sutured to the bladder with cotton thread. The polyethylene tube cannulated into the bladder was cut at a length of about 1 cm, which was connected to a silicon tube (No. 00) and exposed to the dorsum through the skin. The animals were housed in individual cages until they were used for the experiments.
One day after the surgery, the animal was anesthetized with halothane and placed in Ballman cages under restricted conditions. After a three-way cock was connected to the tube cannulated into the bladder, a saline infusion tube was connected to a cystometry tube (resistance to infusion). An electronic scale was placed under the Ballman cages and the micturition volume was measured at the same time. When the anesthetic completely worn off, the infusion of saline into the bladder commenced and the bladder pressure and micturition volume were recorded on a personal computer via an A-D converter (MP-100, BIOPAC Systems) and analyzed using a dedicated software (AcqKnowledge, BIOPAC Systems).
Saline was infused into the bladder at the rate of 6 ml/hr and the infusion was continued for 1 or 2 hours until stable micturition was recorded. In order to enhance the permeability of a drug into the bladder, protamine sulfate (10 mg/mL in PBS) was infused into the bladder for an hour (Chuang Y, et. al., 2003, Urology, 63, 664-670). […] Then, saline was reinfused into the bladder and micturition was recorded at least 2 hours until protamine was completely washed off. […] Mean micturition intervals during from about 30 minutes to about 60 minutes after starting the infusion of CuCl2 were calculated to find a ratio to mean micturition intervals for about 30 minutes before the infusion of CuCl2 (% of the pre-value).

TGR7 = TGR7 (Homo sapiens, UniProt Q8TDS7); details: Cytosensor, TGR7-expressed cells (FIG. 8)
TGR7, sequence (Q8TDS7 whole entry): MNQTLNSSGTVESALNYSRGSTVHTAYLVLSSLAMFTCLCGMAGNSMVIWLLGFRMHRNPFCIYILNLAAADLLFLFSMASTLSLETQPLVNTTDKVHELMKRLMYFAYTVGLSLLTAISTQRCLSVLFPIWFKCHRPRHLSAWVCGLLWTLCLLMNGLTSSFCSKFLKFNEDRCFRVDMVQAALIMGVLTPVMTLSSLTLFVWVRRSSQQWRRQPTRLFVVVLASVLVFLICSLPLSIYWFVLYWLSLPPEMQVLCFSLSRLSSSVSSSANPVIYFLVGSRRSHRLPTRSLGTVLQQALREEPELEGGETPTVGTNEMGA
Procedure: (§1) Activation of the intracellular signal transduction system by ligands using a Cytosensor was determined in terms of the pH changes by metabolism of cells as an indicator.
(§2) The procedures were as follows. On the previous day, the human GPR39-expressing CHO cell line was cultured in a culture flask to reach a confluent state. After washing with PBS (Invitrogen Corp.), the cells were scraped off using trypsin (Invitrogen Corp.) and centrifuged for recovery. The cells were then suspended in medium and the suspension was adjusted to 3×10^5 cells/ml. The capsule of Cytosensor capsule kit (Molecular Device) was placed on a 12-well plate (Costar) and 1 ml of the cell suspension was charged therein. After covering with the lid, the cells were incubated at 37° C. in an incubator until next day. On the day when the assay was conducted, Cytosensor was activated as instructed by the protocol. Then, RPMI1640 medium (pH 7.4) (Invitrogen Corp.) for Cytosensor was prepared and equilibrated. The spacer was then placed in the capsule where the cells prepared on the previous day were seeded, and the capsule was set on Cytosensor. After equilibration with the medium, a sample was added to the cells by switching the flow path and pH changes were determined.

human GPR39 = target: T1, human GPR39 (Homo sapiens, UniProt O43194); details: Cytosensor, CHO/hGPR39 (FIG. 8)
T1 sequence (O43194 1-453): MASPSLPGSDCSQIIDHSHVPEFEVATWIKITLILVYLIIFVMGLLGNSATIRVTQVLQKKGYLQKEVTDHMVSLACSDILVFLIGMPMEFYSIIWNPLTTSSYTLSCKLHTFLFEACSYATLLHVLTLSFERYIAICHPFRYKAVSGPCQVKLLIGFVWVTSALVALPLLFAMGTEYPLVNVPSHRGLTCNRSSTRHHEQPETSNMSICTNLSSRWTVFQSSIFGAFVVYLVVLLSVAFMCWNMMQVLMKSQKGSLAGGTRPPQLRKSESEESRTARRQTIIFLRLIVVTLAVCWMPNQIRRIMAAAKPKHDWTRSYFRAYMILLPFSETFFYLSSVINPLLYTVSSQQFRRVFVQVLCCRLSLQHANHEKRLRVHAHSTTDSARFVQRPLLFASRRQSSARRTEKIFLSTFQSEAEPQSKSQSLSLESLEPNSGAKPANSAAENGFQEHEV
Procedure: as §1, §2

[4] = system: mock cells where GPR39 was not expressed; details: Cytosensor, mock cells where GPR39 was not expressed (FIG. 8)
Procedure: as §1, §2

Row | SMILES | intracellular calcium response in CHO cells without the receptor or with GPCR other than GPR39 [1] | amount of IL-8 accumulated relative to absence of copper chloride [2] | basal pressure (bladder) [3] | ratio of mean micturition intervals (% of the pre-value) ([3]; about 30-60 min after start vs about 30 min before, pre-value made 100%, n=4) | cell response (pH change) in other receptor TGR7 cells (TGR7) | cell response (pH change, acidification rate) in GPR39-expressed cells (human GPR39) | cell response (pH change) in mock cells [4]
1 | [Cl][Cu][Cl] [copper chloride] | no such response was observed | approximately twice | not affected | 42.2±6.1% | – | – | –
2 | [Cl][Ni][Cl] [nickel chloride] | no such response was observed | – | – | – | any response was not detected | a cell response specific to nickel was detected | any response was not detected
